Measured values from patent publication US9078810B2, “Transdermal delivery system” (Acrux DDS Pty Ltd., priority 2007, dated 2015).
Like-named read-outs stand apart in the source and are kept apart here.

Legend:
[1] = Diclofenac Transdermal Spray finite-dose in vitro diffusion study (Example 6); type: in vitro ADME, human; conditions: 24 hr
Procedure: Finite-dose in vitro diffusion studies were undertaken dermatomed skin (Padgett Model B or S electric dermatome set at 500 μm) prepared from excised […], abdominal skin.
These experiments were conducted over 24 hours using flow-through systems with a 1-cm^2 administration area.
Following a 2-h equilibration of the skin with the receptor solution (RS) of phosphate-buffered saline (PBS) pH 7.4, the stratum corneum surface was dosed with a volume of 3.6 μL/cm^2 (unless otherwise indicated) of a test formulation using a positive displacement pipette. The formulation was spread evenly over the skin area using the pipette tip.
The Diclofenac Transdermal Spray formulations were as follows: — • 0.1-2.0% Diclofenac (DIC) diethylamine in Isopropyl alcohol (IPA) [no enhancer] • 0.1-2.0% DIC diethylamine, 5% Octyl Salicylate (OS) in IPA [OS alone] • 0.1-2.0% DIC diethylamine, 2.5% Polyethylene glycol 200 (PEG 200) in IPA [PEG 200 alone] • 0.1-2.0% DIC diethylamine, 5% OS, 2.5% PEG 200 in IPA [OS+PEG 200]
A commercially available Diclofenac gel (approximately 5 mg/cm2) was used as a control. The commercially available gel was applied using a solid cap to simulate the rubbing action required when using the product. Approximately 7 mg gel was applied to the circular surface of a black polypropylene cylindrical cap (Alltech catalogue #98105, diameter 11 mm). […]

[2] = type: in vitro ADME, human
Source text: The receptor solutions (Phosphate Buffered Saline pH7.4) maintained sink conditions below the skin.
The formulations consisted of:— • Composition (Camp) 1 (Control): 1.35% Nestorone (NES), 0.35% Ethinylestradiol (EE), 5% Octyl Salicylate (OS) in Isopropyl Alcohol (IPA) • Comp 2: 1.35% NES, 0.35% EE, 5% OS, 5% Polyethylene glycol 400 (PEG400) in IPA • Comp 3: 1.35% NES, 0.35% EE, 0.5% Polyethylene glycol (PEG200) in IPA • Comp 4: 1.35% NES, 0.35% EE, 5% OS, 0.5% PEG200 in IPA • Comp 5: 1.35% NES, 0.35% EE, 1% PEG200 in IPA • Comp 6: 1.35% NES, 0.35% EE, 5% OS, 1% PEG200 in IPA • Comp 7: 1.35% NES, 0.35% EE, 2.5% PEG200 in IPA • Comp 8: 1.35% NES, 0.35% EE, 5% OS, 2.5% PEG200 in IPA • Comp 9: 1.35% NES, 0.35% EE, 5% PEG200 in IPA • Comp 10:1.35% NES, 0.35% EE, 5% OS, 5% PEG200 in IPA • Comp 11: 1.35% NES, 0.35% EE, 10% PEG200 in IPA • Camp 12: 1.35% NES, 0.35% EE, 5% OS, 10% PEG200 in IPA

[3] = Finite-dose in vitro diffusion study, Franz-type cells, 24 hours (Example 1); type: in vitro ADME, human; conditions: effect of PEG200 in combination with OS vs 5% OS comparison composition, 2.8% NETA, 0.55% E2, 3.6 μL/cm2
Procedure: These experiments were performed over 24 hours using Franz-type cells. Pre-cut skin membranes were mounted as a barrier between the halves of greased (high vacuum grease, BDH) horizontal Franz-type permeation cells in the middle of the receptor chamber of the cell with the stratum corneum facing the donor chamber. The area available for permeation was approximately 0.925 cm2. The receptor chambers of the permeation cells were filled with the receptor phase (Phosphate Buffered Saline pH 7.4) and capped. The permeation cells were immersed in a constant temperature water bath such that the receptor chambers were maintained at 35° C. Receptor chamber contents were continuously agitated by small PTFE-coated magnetic stirrer bars driven by submersible magnetic stirrers. The skin was allowed to equilibrate to temperature with receptor solution for 1 h in the water bath prior to dosing.
The formulations were applied to the skin at a dose of 3.6 μL/cm2. The applied formulation was spread over the skin area using an Eppendorf positive displacement pipette tip without breaking the skin membrane. […]

[4] = Finite-dose in vitro diffusion study, flow through diffusion cells, 15 μL/cm2 (Example 3); conditions: effect of PEG200 (0.5-2.5%) in combination with 5% OS, 2% TES, 2% PVP, 30% IPA in ethanol, 24 hr
Procedure: These experiments were performed over 24 hours using stainless steel, flow through diffusion cells based on those described previously (Cooper, E. R. J. Pharm. Sci. 1984, 73, 1153-1156) except that the cell was modified to increase the diffusion area to 1.0 cm2. The formulations were applied using a finite dose technique (Franz, T. J. Curr. Probl. Dermatol., 1978, 7, 58-68) to mimic clinical dosing conditions at an applied dose volume of 15 μL/cm2. […] The receptor solutions (0.002% w/v NaN3) maintained sink conditions below the skin.
The formulations consisted of:— • Comp 1: 2% Testosterone (TES), 5% Octyl Salicylate (OS), 2% polyvinyl pyrrolidine (PVP), 30% isopropyl alcohol (IPA) in ethanol (95%) • Comp 2: 2% TES, 5% OS, 2% PVP, 30% IPA, 0.5% polyethylene glycol 200 (PEG200) in ethanol (95%) • Comp 3: 2% TES, 5% OS, 2% PVP, 30% IPA, 1.0% PEG200 in ethanol (95%) • Comp 4: 2% TES, 5% OS, 2% PVP, 30% IPA, 2.5% PEG200 in ethanol (95%)

[5] = Finite-dose in vitro diffusion study, flow through diffusion cells, 3.6 μL/cm2 (Example 4); conditions: effect of PEG200 (1.0-2.5%) in combination with 5% OS, 5% TES in ethanol (95%), 24 hr
Procedure: These experiments were performed over 24 hours using stainless steel, flow through diffusion cells based on those described previously (Cooper, E. R. J. Pharm. Sci. 1984, 73, 1153-1156) except that the cell was modified to increase the diffusion area to 1.0 cm2. The formulations were applied using a finite dose technique (Franz, T. J. Curr. Probl. Dermatol., 1978, 7, 58-68) to mimic clinical dosing conditions at an applied dose volume of 3.6 μL/cm2. […] The receptor solutions (0.002% w/v NaN3) maintained sink conditions below the skin.

[6] = Estradiol Spray finite-dose in vitro permeation study (Example 7); type: in vitro ADME, human; conditions: 24 h
Procedure: Finite-dose in vitro permeation studies were undertaken using dermatomed skin (Padgett Model B or S electric dermatome set at 500 μm) prepared from excised […], abdominal skin.
These experiments were conducted over 24 hours (h) using flow-through systems with a 1-cm2 administration area. […] The receptor solution was maintained at a nominal flow rate of 0.5 mL/h by a peristaltic pump (Watson Marlow 520S Peristaltic Pump with 313A adaptor and 308MC 8 roller pump-head; Stauff Corporation, Australia). The cells were placed on a heater bar to keep the temperature of the skin at 32±1° C.
Following a 2-h equilibration of the skin with the receptor solution (RS; 0.002% sodium azide), the stratum corneum surface was dosed with 3.6 μL/cm^2 of an Estradiol Transdermal Spray formulation using a positive displacement pipette. The formulation was spread evenly over the skin area using the pipette tip.
The Estradiol transdermal spray formulations contained:— • Estradiol (E2)+Octyl Salicylate (OS) in Isopropyl Alcohol IPA • E2+OS+Polyethylene glycol (PEG200) in Isopropyl Alcohol IPA • E2+OS+Polyethylene glycol 400 (PEG400) in IPA

Structure (SMILES): O=C(O)Cc1ccccc1Nc1c(Cl)cccc1Cl [DIC, Diclofenac]
- permeation through human epidermis in vitro ([1]; effect of PEG200 in combination with OS, DIC diethylamine, 5% OS, 2.5% PEG 200 in IPA): significantly enhance
- permeation through human epidermis in vitro ([1]; effect of PEG 400, either alone or in combination with OS): decrease

Structure (SMILES): C#C[C@]1(O)CC[C@H]2[C@@H]3CCc4cc(O)ccc4[C@H]3CC[C@@]21C [Ethinylestradiol]
- permeation through human epidermis in vitro [2]: inhibit

Structure (SMILES): C=C1C[C@H]2[C@@H]3CCC4=CC(=O)CC[C@@H]4[C@H]3CC[C@]2(C)[C@@]1(OC(C)=O)C(C)=O [Nestorone]
- permeation through human epidermis in vitro [2]: did not have a significant effect

Structure (SMILES): C#C[C@]1(OC(C)=O)CC[C@H]2[C@@H]3CCC4=CC(=O)CC[C@@H]4[C@H]3CC[C@@]21C [Norethisterone Acetate]
- permeation through human epidermis in vitro [3]: significantly enhance

Structure (SMILES): C[C@]12CC[C@H]3[C@@H](CCC4=CC(=O)CC[C@@]43C)[C@@H]1CC[C@@H]2O [Testosterone]
- permeation through human epidermis in vitro [4]: significantly enhance
- permeation through human epidermis in vitro [5]: significantly enhance

Structure (SMILES): C[C@]12CC[C@@H]3c4ccc(O)cc4CC[C@H]3[C@@H]1CC[C@@H]2O [estradiol, Estradiol]
- permeation through human epidermis in vitro [3]: significantly enhance
- permeation through human skin in vitro ([6]; effect of PEG200 combined with OS in IPA, 3.6 μL/cm^2): synergistically enhanced
- permeation through human skin in vitro ([6]; effect of PEG400 alone and PEG400+OS compared with the control formulation): no significant effect
